Results published in a melting point compilation (Tetko et al.; mined from patent text by program, amines drawn as free bases though some values may be those of a salt).

| SMILES | melting point |
| --- | --- |
| COc1ccc(C)cc1NC(=O)Nc1ccc(N2CCN(C(=O)Nc3ccc(C(O)CO)cc3C)CC2)cc1 (centres undefined) | 112 to 113 °C |
| O=C(CCC(=O)Sc1ccc(O)cc1)Sc1ccc(O)cc1 | 226 to 229 °C |
| CSCOc1ccc(-c2coc3ccc(-c4nnc(C)o4)cc23)cc1 | 116 to 117 °C |
| CCCC(=O)c1cnc2c(C3CO3)cccc2c1Nc1ccccc1C (centres undefined) | 114 to 116 °C |
| CCC(=O)NCCC1CCc2c(OC)ccc3ccc(OC)c1c23 (centres undefined) | 111 °C |
| COc1ccc(C2CNC(=O)C2)cc1OCC(O)CN1CCN(c2ccccc2)CC1 (centres undefined) | 143 to 144 °C |
| OC(Cn1cncn1)(c1ccc(F)cc1F)C1(SC(F)(F)F)CC1 (centres undefined) | 103 °C |
| CC(C)(F)[C@H]1C(=O)N[C@@H]1CC(=O)O (racemic) | 118 to 122 °C |
| O=c1ccn(-c2ccc3c(c2)Cc2cc(=O)[nH]nc2-3)cc1 | > 300 °C |
| CONS(=O)(=O)c1ccc(Cl)cc1 | 81 to 82.5 °C |
| Cc1cc(O)n2nc(S(=O)(=O)Nc3c(Cl)cccc3Cl)nc2n1 | 302 °C |
| CC(C)(O)Cn1c(CO)nc2c(N)nc3cc(OCc4cscn4)ccc3c21 | 260 to 262 °C |
| CC(C)Cc1nn(C)c(=O)c2cc(Cc3c(F)cccc3Cl)sc12 | 85 to 86 °C |
| COC(=O)c1ccc([N+](=O)[O-])cc1S(=O)(=O)O | 92 to 94 °C |
| N#Cc1c(O)ccc2ccccc12 | 160 to 161 °C |
| COc1ccc(Nc2nc(NC3CCCCCC3)nc(Oc3ccccc3I)n2)cc1Cl | 206 to 208 °C |
| CCOC(=O)[C@@H]1CN(CC2=Cc3ccc(OC)cc32)CC[C@H]1O (relative stereo) | 156 to 160 °C |
| O=C1CCCN1CCCN=c1sc2ccccc2s1 | 101 to 104 °C |
| CC1=Cc2ccc(Cl)cc2C(c2ccc(N)c(C)c2)=NN1C(=O)NC1CC1 | 233 to 236 °C |
| O=C1CC(c2cccc(-n3ccnc3)c2)=Nc2ccc(-c3ccccc3)cc2N1 | 201 to 205 °C |
| CCC(Cn1cncn1)(C(N)=O)c1ccc(Cl)cc1 (centres undefined) | 139 to 140 °C |
| CC(=O)NC1(C)CCN(CCCOc2ccc(F)cc2)CC1 | 103 °C |
| CSc1noc(C2CC2)c1C(=O)c1ccc(C(F)(F)F)nc1C | 103 to 104 °C |
| O=C1COCCOCC(=O)NCCOCCOCCOCCN1 | 90 to 91 °C |
| CCSC(=NC(C)=O)Nc1c(Cl)cccc1Cl | 97 to 100 °C |

| SMILES | melting point |
| --- | --- |
| CCOc1cc2nc(NC)nc(-c3cccc(-c4cccnc4SC)c3)c2cc1OCC | 105 to 107 °C |
| COCOc1ccc(C=C[N+](=O)[O-])cc1OCc1ccccc1 | 75 to 76 °C |
| O=C(Nc1ccc(-n2nc(C(F)(F)F)cc2C2CC2)cc1)c1c(Cl)cncc1Cl | 182 to 184 °C |
| C=CCC(NC(=O)c1ccc(OC)cc1)C(=O)O (centres undefined) | 121 to 124 °C |
| CCCCc1nc2ccccc2n1Cc1ccc(C(=O)O)cc1F | 224 to 226 °C |
| CN1CCN(c2ncc(-c3cnc4c(c3)N(Cc3c(F)ccc(F)c3Cl)CCN4)cn2)CC1 | 194 to 195 °C |
| CC1(C)C=C(c2cccc(C(F)(F)F)c2)c2ccc(O)cc2O1 | 102 to 106 °C |
| Cc1cc(C)c2c(c1C)OC(C)(CC(=O)O)C2 (centres undefined) | 139 to 140 °C |
| COc1ccc(C(=O)OC2C(OC(C)=O)C=C(C)C(=O)CC2(C)C)cc1 (centres undefined) | 78 to 80 °C |
| O=c1ncc(I)cn1COCc1ccc(Cl)cc1 | 168 °C |
| CC(C)(C)c1cc(CCc2nsc(=O)o2)cc(C(C)(C)C)c1O | 82 to 86 °C |
| OCC(O)COc1ccc(NNC(c2ccccc2)(c2ccccc2)c2ccccc2)nn1 (racemic) | 174 to 176 °C |
| CCOC(=O)C(=NO)c1cccc(Br)c1 | 113 to 114 °C |
| O=C(O)c1[nH]c2ccc(Cl)cc2c1S(=O)(=O)c1nccs1 | 260 to 261 °C |
| Cc1ccsc1C(=O)C[N+](=O)[O-] | 59 to 61 °C |
| CNC(=O)N(c1ccc(OC(F)(F)F)cc1)c1nc(OCC(F)(F)F)cc(OCC(F)(F)F)n1 | 123 to 125 °C |
| CCN(C(=O)C(F)(F)F)c1ccc(C(=O)Nc2ccc3ccc(OC)nc3n2)cc1 | 150 °C |
| C#CC(CCCCC)OC(c1ccccc1)(c1ccccc1)c1ccccc1 (centres undefined) | 65 to 66.5 °C |
| Cc1cc(Br)cnc1CCCNc1ncc(Cc2cccnc2)cc1[N+](=O)[O-] | 105 to 106 °C |
| CCOC(=O)c1cn2c3c(cc(CN4CCOCC4)cc3c1=O)OCC2 | 216 to 218 °C |
| Cc1ccc(CCN2CCN(c3nsc4ccccc34)CC2)c2c1C(C)(C)CC(=O)N2 | 129 °C |
| O=[N+]([O-])CC(SC(=S)N1CCCC1)c1ccccc1 (centres undefined) | 116 to 120 °C |
| O=c1c2cccnc2n(-c2cccc(CO)c2)c(=O)n1Cc1cccnc1 | 197 to 198 °C |
| N#Cc1cn2cc(Br)nc(N3CCOCC3)c2n1 | 265 °C |
